These results are taken from patent publication US20170233414A1, “DERIVATIVES OF BODIPY” (OREGON HEALTH & SCIENCE UNIVERSITY, priority 2016, published 2017).

The nature of data set [1]: Fluorescence properties and quantum yield measurements of the BAA library. The data set is classed as physicochemical. More on the design: FWHM (full-width-at half max): unit not given here. To be noted: anhydrous DMSO; for λmax ABS / λmax EM: polystyrene 96 well plate; for FWHM (full-width-at half max): emission; for φfl (quantum yield): relative to reference fluorophore at three concentrations. Summed up: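 Relative quantum yields used a three-concentration gradient method, with the reference set by absorbance maximum: fluorescein up to 510 nm (ex 470, em 490–800 nm), rhodamine B for 511–595 nm (ex 525, em 545–800 nm), cresyl violet above 595 nm (ex 570, em 590–800 nm). Spectral maxima and FWHM recorded in anhydrous DMSO.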

The conditions of data set [2]: cited from earlier work.

Where two headings read alike, the source gives them in different places.

As to `CC1=CC(C=Cc2ccc(-c3cccs3)nc2)=[N+]2C1=Cc1ccc(CCC(=O)O)n1[B-]2(F)F` [BAA-56a], in data set [1], the “Stokes Shift” value stood at 10 nm, the “λmax ABS” value is listed as 585 nm, the “λmax EM” value is on record as 595 nm and the “FWHM (full-width-at half max)” value was 32. Also, the “φfl (quantum yield)” value in data set [1] worked out at 0.91.

For `CC1=CC(C=Cc2ccc(-c3cccs3)nc2)=[N+]2C1=Cc1ccc(C(=Cc3ccc(-c4cccs4)nc3)CC(=O)O)n1[B-]2(F)F` [BAA-56b], in data set [1], the “Stokes Shift” value is listed as 11 nm, the “λmax ABS” value is 586 nm, the “λmax EM” value was 597 nm and the “FWHM (full-width-at half max)” value worked out at 35. Moreover, the “φfl (quantum yield)” value in data set [1] was found to be 0.15.

On to `CC1=CC(C=Cc2cnn(-c3ccccc3C)c2C)=[N+]2C1=Cc1ccc(CCC(=O)O)n1[B-]2(F)F` [BAA-57a], for which, in data set [1], the “Stokes Shift” value was 16 nm, the “λmax ABS” value turned out to be 574 nm, the “λmax EM” value was determined as 590 nm and the “FWHM (full-width-at half max)” value is 45. In addition, the “φfl (quantum yield)” value in data set [1] was found to be 0.75.

Consider `CC1=CC(C=Cc2cnn(-c3ccccc3C)c2C)=[N+]2C1=Cc1ccc(C(=Cc3cnn(-c4ccccc4C)c3C)CC(=O)O)n1[B-]2(F)F` [BAA-57b], for which, in data set [1], the “Stokes Shift” value is 16 nm, the “λmax ABS” value is reported as 575 nm, the “λmax EM” value is 591 nm and the “FWHM (full-width-at half max)” value worked out at 38. In addition, the “φfl (quantum yield)” value in data set [1] is given as 0.75.

Take `COC(=O)c1ccc(-c2cccc(C=CC3=[N+]4C(=Cc5ccc(CCC(=O)O)n5[B-]4(F)F)C(C)=C3)c2)cc1` [BAA-58a]: in data set [1], the “Stokes Shift” value stood at 10 nm, the “λmax ABS” value was 572 nm, the “λmax EM” value was found to be 582 nm and the “FWHM (full-width-at half max)” value is 30. For the same compound, the “φfl (quantum yield)” value in data set [1] came out at 0.70.

Turning to `CC1=CC(C=Cc2cccc(-c3ccc(S(C)(=O)=O)cc3)n2)=[N+]2C1=Cc1ccc(CCC(=O)O)n1[B-]2(F)F` [BAA-59a], in data set [1], the “Stokes Shift” value came to 10 nm, the “λmax ABS” value is reported as 571 nm, the “λmax EM” value was determined as 581 nm and the “FWHM (full-width-at half max)” value is 30. Moreover, the “φfl (quantum yield)” value in data set [1] stood at 0.53.

As for `CC1=CC(C=Cc2ccc(-c3cccs3)s2)=[N+]2C1=Cc1ccc(C(=Cc3ccc(-c4cccs4)s3)CC(=O)O)n1[B-]2(F)F` [BAA-60b], in data set [1], the “Stokes Shift” value worked out at 16 nm, the “λmax ABS” value came out at 588 nm, the “λmax EM” value stood at 604 nm and the “FWHM (full-width-at half max)” value is given as 37. Besides, in data set [1], the “φfl (quantum yield)” value worked out at 0.47.

Take `CC1=CC(C=Cc2cccc3cnccc23)=[N+]2C1=Cc1ccc(CCC(=O)O)n1[B-]2(F)F` [BAA-62a]: in data set [1], the “Stokes Shift” value was determined as 15 nm, the “λmax ABS” value is 579 nm, the “λmax EM” value was found to be 594 nm and the “FWHM (full-width-at half max)” value is reported as 33. Besides, in data set [1], the “φfl (quantum yield)” value stood at 0.68.

Take `CC1=CC(C=Cc2cc3ccc(C)cc3nc2Cl)=[N+]2C1=Cc1ccc(CCC(=O)O)n1[B-]2(F)F` [BAA-63a]: in data set [1], the “Stokes Shift” value is 15 nm, the “λmax ABS” value came out at 592 nm, the “λmax EM” value is reported as 607 nm and the “FWHM (full-width-at half max)” value is 39. In addition, in data set [1], the “φfl (quantum yield)” value is reported as 0.43.

As to `CC1=CC(C=Cc2c[nH]nc2-c2ccc(Cl)cc2)=[N+]2C1=Cc1ccc(CCC(=O)O)n1[B-]2(F)F` [BAA-64a], in data set [1], the “Stokes Shift” value is 17 nm, the “λmax ABS” value came to 576 nm, the “λmax EM” value amounted to 593 nm and the “FWHM (full-width-at half max)” value was found to be 37. Further, the “φfl (quantum yield)” value in data set [1] is 0.80.

For the compound `CC1=CC(C=Cc2ccc(-c3ccccc3F)o2)=[N+]2C1=Cc1ccc(CCC(=O)O)n1[B-]2(F)F` [BAA-65a], in data set [1], the “Stokes Shift” value came to 16 nm, the “λmax ABS” value worked out at 606 nm, the “λmax EM” value came out at 622 nm and the “FWHM (full-width-at half max)” value stood at 54. Also, the “φfl (quantum yield)” value in data set [1] is 0.21.

Regarding `CC1=CC(C=Cc2ccc(-c3ccc(Cl)s3)nc2)=[N+]2C1=Cc1ccc(CCC(=O)O)n1[B-]2(F)F` [BAA-66a], in data set [1], the “Stokes Shift” value was found to be 11 nm, the “λmax ABS” value was 587 nm, the “λmax EM” value came out at 598 nm and the “FWHM (full-width-at half max)” value amounted to 34. For the same compound, in data set [1], the “φfl (quantum yield)” value was 0.28.

In the case of `CCSc1ccc(-c2ccc(C=CC3=[N+]4C(=Cc5ccc(CCC(=O)O)n5[B-]4(F)F)C(C)=C3)cn2)cc1` [BAA-67a], in data set [1], the “Stokes Shift” value is 11 nm, the “λmax ABS” value turned out to be 587 nm, the “λmax EM” value was determined as 598 nm and the “FWHM (full-width-at half max)” value is 61. Also, the “φfl (quantum yield)” value in data set [1] is reported as 0.15.

With `CC1=CC(C=Cc2ccc(-c3nccs3)cc2)=[N+]2C1=Cc1ccc(CCC(=O)O)n1[B-]2(F)F` [BAA-68a], in data set [1], the “Stokes Shift” value is 10 nm, the “λmax ABS” value amounted to 585 nm, the “λmax EM” value stood at 595 nm and the “FWHM (full-width-at half max)” value stood at 30. Besides, the “φfl (quantum yield)” value in data set [1] was 0.17.

As for `CC1=CC(C=Cc2ccc(-c3cc(Cl)cc(Cl)c3)nc2)=[N+]2C1=Cc1ccc(CCC(=O)O)n1[B-]2(F)F` [BAA-69a], in data set [1], the “Stokes Shift” value is given as 12 nm, the “λmax ABS” value was 577 nm, the “λmax EM” value was found to be 589 nm and the “FWHM (full-width-at half max)” value came out at 30. Moreover, the “φfl (quantum yield)” value in data set [1] is 0.85.

For `CC1=CC(C=Cc2ccc(-c3cccc(C(F)(F)F)c3)nc2)=[N+]2C1=Cc1ccc(CCC(=O)O)n1[B-]2(F)F` [BAA-70a], in data set [1], the “Stokes Shift” value is reported as 8 nm, the “λmax ABS” value is 580 nm, the “λmax EM” value was 588 nm and the “FWHM (full-width-at half max)” value is recorded as 33. Besides, the “φfl (quantum yield)” value in data set [1] was found to be 0.17.

Take `CC1=CC(C=Cc2ccc(-c3ccc(OC(F)(F)F)cc3)nc2)=[N+]2C1=Cc1ccc(CCC(=O)O)n1[B-]2(F)F` [BAA-71a]: in data set [1], the “Stokes Shift” value turned out to be 9 nm, the “λmax ABS” value is recorded as 580 nm, the “λmax EM” value was 589 nm and the “FWHM (full-width-at half max)” value was found to be 32. Further, the “φfl (quantum yield)” value in data set [1] was 0.19.

Turning to `CC1=CC(C=Cc2ccc(-c3ccc(F)c(F)c3)nc2)=[N+]2C1=Cc1ccc(CCC(=O)O)n1[B-]2(F)F` [BAA-72a], in data set [1], the “Stokes Shift” value was 10 nm, the “λmax ABS” value turned out to be 580 nm, the “λmax EM” value is on record as 590 nm and the “FWHM (full-width-at half max)” value is recorded as 31. In addition, the “φfl (quantum yield)” value in data set [1] was 0.40.

Take `CC1=CC(C=Cc2ccc(OCCBr)cc2)=[N+]2C1=Cc1ccc(CCC(=O)O)n1[B-]2(F)F` [BAA-73a]: in data set [1], the “Stokes Shift” value is recorded as 14 nm, the “λmax ABS” value came out at 579 nm, the “λmax EM” value is 593 nm and the “FWHM (full-width-at half max)” value was 46. For the same compound, in data set [1], the “φfl (quantum yield)” value is reported as 0.55.

With `COc1ccc(C=O)cc1OCCOc1cc(C=CC2=[N+]3C(=Cc4ccc(CCC(=O)O)n4[B-]3(F)F)C(C)=C2)ccc1OC` [BAA-74a], in data set [1], the “Stokes Shift” value is 18 nm, the “λmax ABS” value came out at 584 nm, the “λmax EM” value is given as 602 nm and the “FWHM (full-width-at half max)” value came out at 59. In addition, the “φfl (quantum yield)” value in data set [1] is reported as 0.15.

As for `COc1ccc(C=O)cc1OCCOc1cc(C=CC2=[N+]3C(=Cc4ccc(C(=Cc5ccc(OC)c(OCCOc6cc(C=O)ccc6OC)c5)CC(=O)O)n4[B-]3(F)F)C(C)=C2)ccc1OC` [BAA-74b], in data set [1], the “Stokes Shift” value is listed as 17 nm, the “λmax ABS” value is 583 nm, the “λmax EM” value is given as 600 nm and the “FWHM (full-width-at half max)” value is 51. The “φfl (quantum yield)” value in data set [1] came out at 0.22.

Take `CC1=CC(C=Cc2ccc(N(CCC#N)CCC#N)cc2)=[N+]2C1=Cc1ccc(CCC(=O)O)n1[B-]2(F)F` [BAA-75a]: in data set [1], the “Stokes Shift” value is recorded as 49 nm, the “λmax ABS” value stood at 614 nm, the “λmax EM” value is 663 nm and the “FWHM (full-width-at half max)” value was 91. Moreover, the “φfl (quantum yield)” value in data set [1] is 0.08.

Regarding `CC1=CC(C=Cc2ccc(N(CCC#N)CCC#N)cc2)=[N+]2C1=Cc1ccc(C(=Cc3ccc(N(CCC#N)CCC#N)cc3)CC(=O)O)n1[B-]2(F)F` [BAA-75b], in data set [1], the “Stokes Shift” value is listed as 55 nm, the “λmax ABS” value was 605 nm, the “λmax EM” value was determined as 660 nm and the “FWHM (full-width-at half max)” value is 91. Further, the “φfl (quantum yield)” value in data set [1] amounted to 0.18.

Consider `CC1=CC(C=Cc2c[nH]c3c(OCc4ccccc4)cccc23)=[N+]2C1=Cc1ccc(CCC(=O)O)n1[B-]2(F)F` [BAA-77a], for which, in data set [1], the “Stokes Shift” value came to 31 nm, the “λmax ABS” value is 603 nm, the “λmax EM” value is listed as 634 nm and the “FWHM (full-width-at half max)” value came out at 61. Further, the “φfl (quantum yield)” value in data set [1] came out at 0.50.

With `CC1=CC(C=Cc2ccc(OCc3ccc([N+](=O)[O-])cc3)cc2)=[N+]2C1=Cc1ccc(CCC(=O)O)n1[B-]2(F)F` [BAA-78a], in data set [1], the “Stokes Shift” value is on record as 11 nm, the “λmax ABS” value was 581 nm, the “λmax EM” value is on record as 592 nm and the “FWHM (full-width-at half max)” value came to 46. For the same compound, the “φfl (quantum yield)” value in data set [1] was 0.19.

For the compound `CC1=CC(C=Cc2ccc(OCc3ccc([N+](=O)[O-])cc3)cc2)=[N+]2C1=Cc1ccc(C(=Cc3ccc(OCc4ccc([N+](=O)[O-])cc4)cc3)CC(=O)O)n1[B-]2(F)F` [BAA-78b], in data set [1], the “Stokes Shift” value was 14 nm, the “λmax ABS” value came out at 579 nm, the “λmax EM” value is on record as 593 nm and the “FWHM (full-width-at half max)” value is 39. For the same compound, in data set [1], the “φfl (quantum yield)” value came to 0.37.

As for `CCN(CC)c1ccc2c(-c3ccccc3C(=O)O)c3ccc(=[N+](CC)CC)cc-3oc2c1.[Cl-]` [Rhodamine B], in data set [2] (in ethanol, reference for max absorbance between 511-595 nm), the “φfl (quantum yield)” value is on record as 0.70.

Consider Cresyl violet, for which the “φfl (quantum yield)” value in data set [2] (in methanol, reference for max absorbance above 595 nm) is listed as 0.54.
